These compounds were tested against T1, aromatase (Homo sapiens, UniProt P11511) (assay: Inhibition of formic acid formation from [19,19,19-3H]androst-4-ene-3,17-dione by placental microsomes). Details: placental microsomes 1 mg/ml (5 ml), pH 7.2, 37° C., 30 minutes; inhibitor 4 n mole, androstenedione 4 n mole; NADPH.
T1 construct: incubated with 5 ml of a placental microsomes; from tissue; host or cells: placental microsomes
T1 sequence (P11511 1-503): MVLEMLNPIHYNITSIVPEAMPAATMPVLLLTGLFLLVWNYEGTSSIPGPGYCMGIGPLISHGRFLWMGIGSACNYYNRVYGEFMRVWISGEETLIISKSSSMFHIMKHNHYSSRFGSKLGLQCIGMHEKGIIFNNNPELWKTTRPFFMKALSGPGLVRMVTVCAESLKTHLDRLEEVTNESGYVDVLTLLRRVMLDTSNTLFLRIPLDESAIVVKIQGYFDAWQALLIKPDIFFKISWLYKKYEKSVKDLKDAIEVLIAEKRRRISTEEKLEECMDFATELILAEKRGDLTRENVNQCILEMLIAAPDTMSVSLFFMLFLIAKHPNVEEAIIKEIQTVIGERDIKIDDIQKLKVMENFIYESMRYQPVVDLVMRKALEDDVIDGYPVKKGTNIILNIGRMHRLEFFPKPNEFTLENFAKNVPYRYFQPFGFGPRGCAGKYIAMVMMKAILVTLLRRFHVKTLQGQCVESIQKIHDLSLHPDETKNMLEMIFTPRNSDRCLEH
Assay type: biochemical
Experimental: A mixture of [19,19,19-^3 H]androst-4-ene-3,17-dione diluted with cold androstenedione (2.8×10^6 dpm, 4 n mole) and an inhibitor (4 n mole) in ethanol (50 μl) was incubated with 5 ml of a placental microsomes (1 mg/ml of 0.05M tris-HCl, pH 7.2) in the presence of NADPH (5 mg), glucose-6-phosphate (2.5 mg), and glucose-6-phosphate dehydrogenase (3.1 units). The incubations were carried out at 37° C. for 30 minutes in air. A control incubation was carried out as above except that the inhibitor was excluded. The incubation mixture (1 ml) was mixed with 1M phosphoric acid (1 ml), flash frozen and lyophilized. Radioactivity in 0.5 ml of the distilled component was measured (A). And 1.2 ml of the distilled component was mixed with 0.3 ml of 1N sodium hydroxide, flash frozen, and lyophilized. Radioactivity in 0.5 ml of the distilled water was measured (B).

Point of comparison: C=C1C=C2CC[C@@H]3[C@H](CC[C@]4(C)C(=O)CC[C@@H]34)[C@@]2(CO)CC1 [Cmpd. 9, 3-methylene-androst-4-ene-19-ol-17-one], “% Inhibition of formic acid formation” value 90%. Against it:
- C=C1C=C2CC[C@@H]3[C@H](CC[C@]4(C)C(=O)CC[C@@H]34)[C@@]2(C=O)CC1 [Cmpd. 53, 3-Methylene-androst-4-ene-17,19-dione] — lower, 70%
- C=C1C=C2CC[C@@H]3[C@H](CC[C@]4(C)C(=O)CC[C@@H]34)[C@@]2(C)CC1 [Cmpd. 3, 3-methylene-androst-4-ene-17-one] — lower, 86%
- C=C1C=C2CC[C@@H]3[C@H](CC[C@]4(C)[C@@H](O)CC[C@@H]34)[C@@]2(CO)CC1 [Cmpd 5, 3-methylene-androst-4-ene-17β,19-diol] — lower, 55%
- C=C1C=C2CC[C@H]3[C@@H]4CC[C@H](O)[C@@]4(C)CC[C@@H]3[C@@]2(C)CC1 [Cmpd. 1, 3-methylene-androst-4-ene-17β-ol] — lower, 43%
